Patent publication US20230143751A1, “Aromatic Compound And Use Thereof In Preparing Antineoplastic Drugs” (Shanghai Zheye Biotechnology Co. Ltd., priority 2020, published 2023)

What was measured:
[1] = biological target: T1, human-derived MDR1 (MDR1 coding P-gp) transporter protein (Homo sapiens, UniProt P08183); conditions: from N Engl J Med 2020;383:1207-1217 supporting information; cited from earlier work
T1 construct: expressed in transfected cells; host or cells: membrane vesicles expressing human MDR1

NCI-H358 cells = test: Cell proliferation activity of NCI-H358 by CellTiter-Glo reagent; assay type: cell-based; conditions: Homo sapiens, NCI-H358; test 8, method of test 3; read-out: IC50 of proliferation inhibitory activity of the compound on NCI-H358 cell line
Description: NCI-H358 cells in exponential growth phase were digested with trypsin-EDTA, plated in a 96-well plate with 2000-3000 cells per well, and incubated overnight at 37° C. with 5% CO2. […] After the incubation, CellTiter-Glo test reagent with an equal volume was added into each well and the obtained 96-well plate was incubated after shaking. The chemiluminescence values were determined by microplate reader, and the IC50 values of the test compounds inhibiting the proliferation of NCI-H358 cells were fitted and calculated by GraphPad Prism software.
The test method of inhibitory activity was the same as that in Test 3 in “Biological Tests” part.

[2] = test system: Chinese hamster lung fibroblasts (CHL cells); conditions: from N Engl J Med 2020;383:1207-1217 supporting information; cited from earlier work
[3] = Preliminary safety test, 5-day escalating oral dosing in Balb/c mice; assay type: in vivo
Description: Test samples: Compound 3-2, Compound 3-6, Compound 3-12M, Compound 3-20, and Compound 4-8.
Animal species and number: Balb/c; 6 animals per group (half male and half female).
(§1) Administration mode: oral administration by gavage.
Animal grouping and administration dose: vehicle blank group, Compound 3-2 group (200 mg/kg, 400 mg/kg, 800 mg/kg), Compound 3-6 group (200 mg/kg, 400 mg/kg, 800 mg/kg), Compound 3-12M group (200 mg/kg, 400 mg/kg, 800 mg/kg), Compound 3-20 group (200 mg/kg, 400 mg/kg, 800 mg/kg), Compound 4-8 group (200 mg/kg, 400 mg/kg, 800 mg/kg).
Administration frequency: once a day for 5 days.
(§2) General clinical observations were performed 2 times a day (once in the morning and once in the afternoon) during the test period. Death, morbidity, respiration, secretions, feces, and diet, drinking situation and so on were observed, and the changes in body weight of the mice during the administration period were recorded. The animals in each group were euthanized after the administration, and all animals were dissected and subjected to gross observation.

[4] = test system: MIA PaCa-2-derived xenograft tumor; test: Pharmacodynamics test of MIA PaCa-2-derived xenograft tumor model in nude mice (test 6); assay type: in vivo
Description: Animal species and number: Balb/c Nude; 6 animals per group.
Test samples: Compound 3-2, Compound 3-6, Compound 3-20, Compound 3-12M.
Test groups: blank solvent control group; Compound 3-2 (10 mg/kg, QD×15 days), Compound 3-6 (10 mg/kg, QD×15 days), Compound 3-20 (10 mg/kg, QD×15 days), Compound 3-12M (10 mg/kg, QD×15 days).
Animal model establishment: MIA paca-2 tumor cells in logarithmic growth phase were cultured in vitro and collected, and inoculated subcutaneously into the right back of nude mice at a quantity of 5×10^6 cells/each. When the tumor volume reached 150-300 mm^3, the tumor-bearing nude mice were randomly grouped. Subsequently, the animals in each group were administered, and the day of the first administration was defined as day 1 of the test.
Administration route and frequency: oral administration by gavage; once a day.
General state observation: observation time and frequency: once a day; observation indexes or contents: including but not limited to administration location, appearance and signs, general behavioral activities, mental status, death and other abnormal performance of the animals. The animals were euthanized at the end of the test.
Tumor volume calculation: V=½×long diameter×short diameter^2 (mm^3). Tumor growth inhibition rate TGI (%) is used to evaluate the tumor inhibition efficacy of the compounds. TGI (%)=[1−(mean tumor volume in treatment group at the end of administration−mean tumor volume in treatment group at the beginning of administration)/(mean tumor volume in control group at the end of administration−mean tumor volume in control group at the beginning of administration)]×100%.

MIA PaCa-2 cells = test: Cell proliferation activity of MIA PaCa-2 by CellTiter-Glo reagent; assay type: cell-based; conditions: 72 h, CellTiter-Glo
Description: MIA PaCa-2 cells in exponential growth phase were digested with trypsin-EDTA, plated in a 96-well plate with 2000-3000 cells per well, and incubated overnight at 37° C. with 5% CO2. Mother solutions were prepared from the test compounds by using DMSO, subjected to gradient elution with DMEM growth medium, and then added into the 96-well plate and incubated in an incubator for 72 h at 37° C. with 5% CO2. After the incubation, CellTiter-Glo test reagent with an equal volume was added into each well and the obtained 96-well plate was incubated after shaking. The chemiluminescence values were determined by microplate reader, and the IC50 values of the test compounds inhibiting the proliferation of MIA PaCa-2 cells were fitted and calculated by GraphPad Prism software.
The test method of inhibitory activity was the same as that in Test 2 in “Biological Tests” part.

[5] = Safety test for repeated administration for 14 days in SD rats; assay type: in vivo; conditions: oral gavage once a day for 14 days, 50, 150, 400 mg/kg
Description: (§3) Test samples: Compound 3-2, and Compound 3-6.
(§4) Animal species and number: SD rat; 6 animals per group (half male and half female).
as §1
Animal grouping and administration dose: vehicle blank group, Compound 3-2 group (50 mg/kg, 150 mg/kg, 400 mg/kg), Compound 3-6 group (50 mg/kg, 150 mg/kg, 400 mg/kg).
Administration frequency: once a day for 14 days.
as §2, with “the rats” for “the mice”, “The contents of detailed clinical observation included but were not limited to behavioral activity, skin, coat, eyes, ears, nose, abdomen, external genitalia, anus, extremities, feet, and respiration. The” for “The”, “euthanized at” for “euthanized after”, “the end of administration period,” for “the administration,”

[6] = Acute toxicity test, single oral dose in SD rats; assay type: in vivo; conditions: rat, in vivo
Description: as §3, §4, §1
Animal grouping and administration dose: vehicle blank group, Compound 3-2 group (500 mg/kg, 1000 mg/kg, 2000 mg/kg), Compound 3-6 group (500 mg/kg, 1000 mg/kg, 2000 mg/kg).
Administration frequency: once.
Death, morbidity, respiration, secretions, feces, and diet, drinking situation and so on were observed, and the changes in body weight of the rats during the administration period were recorded. The contents of detailed clinical observation included but were not limited to behavioral activity, skin, coat, eyes, ears, nose, abdomen, external genitalia, anus, extremities, feet, and respiration. The animals in each group were euthanized at the end of observation period, and all animals were dissected and subjected to gross observation.

NCI-H358 = test: Cell proliferation inhibitory activity on NCI-H358, 3D model test (agarose colony formation); assay type: cell-based
Description: 100 μl of agarose gel with a high concentration was spread in a 96-well plate as the bottom agarose gel layer. Agarose with a low concentration and growth medium containing cells were mixed and then spread on the bottom agar layer, cooled and solidified, then incubated overnight at 37° C. Mother solutions were prepared from the test compounds by using DMSO, and then subjected to gradient elution with RPMI 1640 growth medium. The solutions of test compounds with different concentrations after gradient elution were added to the 96-well plate comprising an upper layer of agar gel-cells. Solvent control well was set up and the plate was incubated in a CO2 incubator. The drug-containing medium was changed during the incubation period and the cell growth situation was observed. After the incubation, the cells were stained with NBT and the number of cell colony formation was counted, and the IC50 values of the compounds inhibiting cell proliferation were derived.

T1 sequence (P08183 whole entry): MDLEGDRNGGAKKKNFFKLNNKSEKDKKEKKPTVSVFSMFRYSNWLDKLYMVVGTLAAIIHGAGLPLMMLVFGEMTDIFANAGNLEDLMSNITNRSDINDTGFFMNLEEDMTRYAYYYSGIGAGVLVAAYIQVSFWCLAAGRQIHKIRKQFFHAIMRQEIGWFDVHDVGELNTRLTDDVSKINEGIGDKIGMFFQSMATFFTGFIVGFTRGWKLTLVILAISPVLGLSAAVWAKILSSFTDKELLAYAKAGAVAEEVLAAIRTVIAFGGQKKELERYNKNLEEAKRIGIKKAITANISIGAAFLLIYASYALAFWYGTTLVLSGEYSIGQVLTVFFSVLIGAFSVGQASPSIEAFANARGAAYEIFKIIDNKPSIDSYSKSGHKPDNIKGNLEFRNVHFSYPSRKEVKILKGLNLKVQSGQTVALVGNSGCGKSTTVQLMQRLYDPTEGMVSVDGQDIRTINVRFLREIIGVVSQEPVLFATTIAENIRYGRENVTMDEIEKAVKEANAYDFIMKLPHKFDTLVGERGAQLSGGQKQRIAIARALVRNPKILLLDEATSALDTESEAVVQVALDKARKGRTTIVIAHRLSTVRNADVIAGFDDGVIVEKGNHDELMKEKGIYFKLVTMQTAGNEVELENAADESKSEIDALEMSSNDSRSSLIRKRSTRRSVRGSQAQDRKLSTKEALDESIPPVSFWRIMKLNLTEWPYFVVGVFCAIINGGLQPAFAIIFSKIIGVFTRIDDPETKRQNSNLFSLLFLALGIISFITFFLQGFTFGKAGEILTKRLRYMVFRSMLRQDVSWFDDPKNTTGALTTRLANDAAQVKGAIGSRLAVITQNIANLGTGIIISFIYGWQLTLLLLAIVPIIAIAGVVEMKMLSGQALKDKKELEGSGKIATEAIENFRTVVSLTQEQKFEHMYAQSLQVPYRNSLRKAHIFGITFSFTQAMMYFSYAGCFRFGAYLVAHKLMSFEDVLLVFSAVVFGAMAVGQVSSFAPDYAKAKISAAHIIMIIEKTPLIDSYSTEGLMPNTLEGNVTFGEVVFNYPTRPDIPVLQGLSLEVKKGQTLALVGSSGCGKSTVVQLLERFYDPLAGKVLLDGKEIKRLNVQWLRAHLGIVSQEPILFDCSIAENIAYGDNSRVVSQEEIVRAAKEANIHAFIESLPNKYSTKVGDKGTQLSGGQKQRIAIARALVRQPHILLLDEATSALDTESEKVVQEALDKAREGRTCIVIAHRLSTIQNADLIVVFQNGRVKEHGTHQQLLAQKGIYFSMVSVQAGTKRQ

| Structure (SMILES) | substrate for P-gp (in words) [1] | IC50 (NCI-H358 cells) | chromosome aberration effect test result (in words) [2] | MTD at 5 days ([3]; both sexes, mouse, in vivo, oral gavage, 5 days, initially suggested, read-out: maximum tolerated dose) | water and food intake, activity and body weight during the administration period (in words) ([3]; oral gavage once a day for 5 days, 200 to 800 mg/kg) | inhibition effect on the growth of subcutaneously transplanted tumors derived from pancreatic cancer MIA paca-2 cells in nude mice (in words) ([4]; 10 mg/kg QD×15 days) | Tumor inhibition rate (%) ([4]; MIA PaCa-2 xenograft, nude mice, 10 mg/kg oral gavage QD×15 days) | anti-cell proliferation activity against KRAS G12C mutant type cells MIA PaCa-2 (in words) (MIA PaCa-2 cells) | IC50 (MIA PaCa-2 cells; Homo sapiens, MIA PaCa-2, read-out: IC50 value of cell proliferation inhibitory activity of the compound on MIA PaCa-2) | water and food intake, activity and body weight during the administration period (in words) [5] | MTD ([6]; both sexes, SD rats, single oral gavage, 500, 1000, 2000 mg/kg, read-out: maximum tolerated dose (MTD)) | death or morbidity after single dose (in words) [6] | anti-cell proliferation activity against KRAS G12C mutant type cells NCI-H358 (in words) (NCI-H358; 3D model test) | IC50 (NCI-H358; Homo sapiens, NCI-H358, 3D agarose colony formation, NBT staining) |
| --- | --- | --- | --- | --- | --- | --- | --- | --- | --- | --- | --- | --- | --- | --- |
| C=CC(=O)N1CCN(c2nc(=O)n(-c3c(C)ccnc3C(C)C)c3nc(-c4c(O)cccc4F)c(F)cc23)[C@@H](C)C1 [AMG510] | is a substrate | 41 nM | positive result | – | – | – | – | – | – | – | – | – | – | – |
| C=CC(=O)N1CCN(c2nc(=O)n(-c3c(C)ccnc3C(C)C)c3nc(-c4c(F)cccc4C=C)c(Cl)cc23)[C@@H](C)C1 [Compound 3-6] | – | 11 nM | – | > 800 mg/kg | no significant abnormality was showed | significant inhibition effect | +++ (“+++” represents a tumor inhibition rate of >80%) | significant anti-cell proliferation activity | < 50 nM | no significant abnormality was showed | ≥ 2000 mg/kg | No animals in each group were dead or close to death | significant anti-cell proliferation activity | < 50 nM |
